Results published in patent publication US20230295197A1, “STAT5 and STAT6 Degraders and Uses Thereof” (REGENTS OF THE UNIVERSITY OF MICHICAN, priority 2022, published 2023).
Read-outs that look alike come from different tables or passages of the source.

Target: T1, STAT6 (Homo sapiens, UniProt P42226)
T1 construct: endogenous in cells; host or cells: MOLM-16, KU-812, SKNO1, MB231, L1236
T1 sequence (P42226 1-847): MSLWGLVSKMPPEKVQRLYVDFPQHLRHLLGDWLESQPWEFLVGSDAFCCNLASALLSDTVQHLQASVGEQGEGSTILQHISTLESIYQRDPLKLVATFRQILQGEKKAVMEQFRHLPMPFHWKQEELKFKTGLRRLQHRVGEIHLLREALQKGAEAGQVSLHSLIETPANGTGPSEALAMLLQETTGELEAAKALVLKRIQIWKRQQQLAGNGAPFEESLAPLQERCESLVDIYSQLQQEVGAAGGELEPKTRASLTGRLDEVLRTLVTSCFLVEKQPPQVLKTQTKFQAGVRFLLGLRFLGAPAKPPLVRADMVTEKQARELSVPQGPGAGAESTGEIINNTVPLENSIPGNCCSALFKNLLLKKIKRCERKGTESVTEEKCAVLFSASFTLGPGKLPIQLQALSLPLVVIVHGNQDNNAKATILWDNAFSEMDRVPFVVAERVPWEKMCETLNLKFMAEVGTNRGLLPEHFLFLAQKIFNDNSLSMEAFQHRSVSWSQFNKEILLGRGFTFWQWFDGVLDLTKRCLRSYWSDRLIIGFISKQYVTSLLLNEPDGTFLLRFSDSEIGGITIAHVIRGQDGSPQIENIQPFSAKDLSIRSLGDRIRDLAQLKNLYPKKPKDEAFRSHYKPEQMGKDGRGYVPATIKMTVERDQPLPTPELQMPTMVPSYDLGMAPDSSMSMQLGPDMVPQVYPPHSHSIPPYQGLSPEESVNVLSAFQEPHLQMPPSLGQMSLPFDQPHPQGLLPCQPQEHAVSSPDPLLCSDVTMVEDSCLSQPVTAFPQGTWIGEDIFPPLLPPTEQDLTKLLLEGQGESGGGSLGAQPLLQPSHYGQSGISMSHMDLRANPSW
Experiment: Immunoblotting (Western blot) analysis of STAT6 degradation efficiency of degraders in treated cells
Assay type: cell-based
Outline: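 Treatment of cells with degraders at stated concentrations and exposure times comes first. Lysates are then equalised for total protein by BCA, and the proteins are separated, transferred and immunostained for STAT6 or STAT5 alongside GAPDH. Signal is quantified from infrared fluorescence.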

[1] = L1236 cells, read-out: DC50 S6 L1236
[2] = MOLM-16 cells, class symbols, read-out: DC50 S6 MOLM-16
[3] = MOLM-16 cells, numeric bound, read-out: DC50 S6 MOLM-16

Compound | DC50 [1] | DC50 [2] | DC50 [3]
Cc1ncsc1-c1ccc([C@H](C)NC(=O)[C@@H]2C[C@@H](O)CN2C(=O)[C@H](NC(=O)CNC(=O)CO[C@H]2C[C@@H](C(=O)N3CCO[C@H](c4ccccc4)C3)N(C(=O)[C@@H](NC(=O)c3cc4cc(C(F)(F)P(=O)(O)O)ccc4s3)C(C)(C)C)C2)C(C)(C)C)cc1 [Compound 425, (difluoro(2-(((S)-1-((2S,4S)-4-(2-((2-(((R)-1-((2S,4R)-4-hydroxy-2-(((S)-1-(4-(4-methylthiazol-5-yl)phenyl)ethyl)carbamoyl)pyrrolidin-1-yl)-3,3-dimethyl-1-oxobutan-2-yl)amino)-2-oxoethyl)amino)-2-oxoethoxy)-2-((R)-2-phenylmorpholine-4-carbonyl)pyrrolidin-1-yl)-3,3-dimethyl-1-oxobutan-2-yl)carbamoyl)benzo[b]thiophen-5-yl)methyl)phosphonic acid] | > 10 µM | > 10 µM | –
CC(C)(C)[C@H](NC(=O)c1cc2cc(C(F)(F)P(=O)(O)O)ccc2s1)C(=O)N1C[C@@H](OCC(=O)NCCCCCC#Cc2cccc3c2C(=O)N(C2CCC(=O)NC2=O)C3=O)C[C@H]1C(=O)N1CCC[C@H](c2ccccc2)C1 (stereo partly drawn) [Compound 501, ((2-(((2S)-1-((2S,4S)-4-(2-((7-(2-(2,6-dioxopiperidin-3-yl)-1,3-dioxoisoindolin-4-yl)hept-6-yn-1-yl)amino)-2-oxoethoxy)-2-((R)-3-phenylpiperidine-1-carbonyl)pyrrolidin-1-yl)-3,3-dimethyl-1-oxobutan-2-yl)carbamoyl)benzo[b]thiophen-5-yl)difluoromethyl)phosphonic acid] | – | > 10 µM | –
CC(C)(C)[C@H](NC(=O)c1cc2cc(C(F)(F)P(=O)(O)O)ccc2s1)C(=O)N1C[C@H](OCCCCCC(=O)N2Cc3cc4c(cc3C2)C(=O)N(C2CCC(=O)NC2=O)C4)C[C@H]1C(=O)N1CCO[C@H](c2ccccc2)C1 (stereo partly drawn) [Compound 592, ((2-(((2S)-1-((2S,4R)-4-((6-(6-(2,6-dioxopiperidin-3-yl)-5-oxo-3,5,6,7-tetrahydropyrrolo[3,4-f]isoindol-2(1H)-yl)-6-oxohexyl)oxy)-2-((R)-2-phenylmorpholine-4-carbonyl)pyrrolidin-1-yl)-3,3-dimethyl-1-oxobutan-2-yl)carbamoyl)benzo[b]thiophen-5-yl)difluoromethyl)phosphonic acid] | – | 1 to 10 µM | –
CC(C)(C)[C@H](NC(=O)c1cc2cc(C(F)(F)P(=O)(O)O)ccc2s1)C(=O)N1C[C@@H](OCCCCCCC#Cc2cccc3c2CN(C2CCC(=O)NC2=O)C3=O)C[C@H]1C(=O)N1CCOC(c2cccs2)C1 (stereo partly drawn) [Compound 611] | – | – | > 0.3 µM
CC(C)(C)[C@H](NC(=O)c1cc2cc(C(F)(F)P(=O)(O)O)ccc2s1)C(=O)N1C[C@@H](OCCCCCCC#Cc2cccc3c2CN(C2CCC(=O)NC2=O)C3=O)C[C@H]1C(=O)N1CCOC(c2ccc(F)c(Cl)c2)C1 (stereo partly drawn) [Compound 608, ((2-(((2S)-1-((2S,4S)-2-(2-(3-chloro-4-fluorophenyl)morpholine-4-carbonyl)-4-((8-(2-(2,6-dioxopiperidin-3-yl)-1-oxoisoindolin-4-yl)oct-7-yn-1-yl)oxy)pyrrolidin-1-yl)-3,3-dimethyl-1-oxobutan-2-yl)carbamoyl)benzo[b]thiophen-5-yl)difluoromethyl)phosphonic acid] | – | – | > 0.3 µM
CC(C)(C)[C@H](NC(=O)c1cc2cc(C(F)(F)P(=O)(O)O)ccc2s1)C(=O)N1C[C@@H](OCC(=O)NCCCCCCCCC#Cc2ccc3c(c2)C(=O)N(C2CCC(=O)NC2=O)C3=O)C[C@H]1C(=O)N1CCC[C@H](c2ccccc2)C1 (stereo partly drawn) [Compound 504, ((2-(((2S)-1-((2S,4S)-4-(2-((10-(2-(2,6-dioxopiperidin-3-yl)-1,3-dioxoisoindolin-5-yl)dec-9-yn-1-yl)amino)-2-oxoethoxy)-2-((R)-3-phenylpiperidine-1-carbonyl)pyrrolidin-1-yl)-3,3-dimethyl-1-oxobutan-2-yl)carbamoyl)benzo[b]thiophen-5-yl)difluoromethyl)phosphonic acid] | – | > 10 µM | –
Cc1ncsc1-c1ccc([C@H](C)NC(=O)[C@@H]2C[C@@H](O)CN2C(=O)[C@@H](NC(=O)CCCCCCCCNC(=O)CO[C@H]2C[C@@H](C(=O)N3CCO[C@H](c4ccccc4)C3)N(C(=O)[C@@H](NC(=O)c3cc4cc(C(F)(F)P(=O)(O)O)ccc4s3)C(C)(C)C)C2)C(C)(C)C)cc1 [Compound 432, (difluoro(2-(((S)-1-((2S,4S)-4-(2-((9-(((S)-1-((2S,4R)-4-hydroxy-2-(((S)-1-(4-(4-methylthiazol-5-yl)phenyl)ethyl)carbamoyl)pyrrolidin-1-yl)-3,3-dimethyl-1-oxobutan-2-yl)amino)-9-oxononyl)amino)-2-oxoethoxy)-2-((R)-2-phenylmorpholine-4-carbonyl)pyrrolidin-1-yl)-3,3-dimethyl-1-oxobutan-2-yl)carbamoyl)benzo[b]thiophen-5-yl)methyl)phosphonic acid] | > 10 µM | > 10 µM | –
Cc1ncsc1-c1ccc([C@H](C)NC(=O)[C@@H]2C[C@@H](O)CN2C(=O)[C@@H](NC(=O)CNC(=O)CC(=O)N2CCN(C(=O)[C@@H](NC(=O)c3cc4cc(C(F)(F)P(=O)(O)O)ccc4s3)C(C)(C)C)[C@H](C(=O)N3CCO[C@H](c4ccccc4)C3)C2)C(C)(C)C)cc1 [Compound 443, (difluoro(2-(((S)-1-((S)-4-(3-((2-(((S)-1-((2S,4R)-4-hydroxy-2-(((S)-1-(4-(4-methylthiazol-5-yl)phenyl)ethyl)carbamoyl)pyrrolidin-1-yl)-3,3-dimethyl-1-oxobutan-2-yl)amino)-2-oxoethyl)amino)-3-oxopropanoyl)-2-((R)-2-phenylmorpholine-4-carbonyl)piperazin-1-yl)-3,3-dimethyl-1-oxobutan-2-yl)carbamoyl)benzo[b]thiophen-5-yl)methyl)phosphonic acid] | > 10 µM | > 10 µM | –
CC(C)(C)[C@H](NC(=O)c1cc2cc(C(F)(F)P(=O)(O)O)ccc2s1)C(=O)N1CCN(C(=O)CC(=O)NCCCCCCCCCC#Cc2cccc3c2C(=O)N(C2CCC(=O)NC2=O)C3=O)C[C@H]1C(=O)N1CCC[C@H](c2ccccc2)C1 (stereo partly drawn) [Compound 533, ((2-(((2S)-1-((2S)-4-(3-((11-(2-(2,6-dioxopiperidin-3-yl)-1,3-dioxoisoindolin-4-yl)undec-10-yn-1-yl)amino)-3-oxopropanoyl)-2-((R)-3-phenylpiperidine-1-carbonyl)piperazin-1-yl)-3,3-dimethyl-1-oxobutan-2-yl)carbamoyl)benzo[b]thiophen-5-yl)difluoromethyl)phosphonic acid] | – | > 10 µM | –
Cc1ncsc1-c1ccc([C@H](C)NC(=O)[C@@H]2C[C@@H](O)CN2C(=O)[C@@H](NC(=O)CNC(=O)CO[C@H]2C[C@@H](C(=O)N3CCC[C@H](c4ccccc4)C3)N(C(=O)[C@@H](NC(=O)c3cc4cc(C(F)(F)P(=O)(O)O)ccc4s3)C(C)(C)C)C2)C(C)(C)C)cc1 [Compound 434, (difluoro(2-(((S)-1-((2S,4S)-4-(2-((2-(((S)-1-((2S,4R)-4-hydroxy-2-(((S)-1-(4-(4-methylthiazol-5-yl)phenyl)ethyl)carbamoyl)pyrrolidin-1-yl)-3,3-dimethyl-1-oxobutan-2-yl)amino)-2-oxoethyl)amino)-2-oxoethoxy)-2-((R)-3-phenylpiperidine-1-carbonyl)pyrrolidin-1-yl)-3,3-dimethyl-1-oxobutan-2-yl)carbamoyl)benzo[b]thiophen-5-yl)methyl)phosphonic acid] | > 10 µM | > 10 µM | –
Cc1ncsc1-c1ccc([C@H](C)NC(=O)[C@@H]2C[C@@H](O)CN2C(=O)[C@@H](NC(=O)CCCNC(=O)COc2ccc3c(c2)CN(C(=O)[C@@H](NC(=O)c2cc4cc(C(F)(F)P(=O)(O)O)ccc4s2)C(C)(C)C)[C@H](C(=O)N2CCC[C@H](c4ccccc4)C2)C3)C(C)(C)C)cc1 [Compound 472, (difluoro(2-(((S)-1-((S)-7-(2-((4-(((S)-1-((2S,4R)-4-hydroxy-2-(((S)-1-(4-(4-methylthiazol-5-yl)phenyl)ethyl)carbamoyl)pyrrolidin-1-yl)-3,3-dimethyl-1-oxobutan-2-yl)amino)-4-oxobutyl)amino)-2-oxoethoxy)-3-((R)-3-phenylpiperidine-1-carbonyl)-3,4-dihydroisoquinolin-2(1H)-yl)-3,3-dimethyl-1-oxobutan-2-yl)carbamoyl)benzo[b]thiophen-5-yl)methyl)phosphonic acid] | – | > 10 µM | –
